Results on 16 compounds are retold here after patent US20200339511A1, “Substituted indoline derivatives as dengue viral replication inhibitors” (priority 2016, published 2020).

The subject of data set [1] is DENV-2 16681 strain. Kind of data set: DENV-2 antiviral assay (eGFP-labeled virus in Vero cells). Format: cell-based, Dengue virus. Conditions: DENV-2 16681 eGFP, MOI 0.5, 3 days. The protocol: The antiviral activity of all the compounds of the invention was tested the against DENV-2 16681 strain which was labeled with enhanced green fluorescent protein (eGPF). The culture medium consists of minimal essential medium supplemented with 2% of heat-inactivated fetal calf serum, 0.04% gentamycin (50 mg/mL) and 2 mM of L-glutamine. Vero cells, obtained from ECACC, were suspended in culture medium and 25 μL was added to 384-well plates (2500 cells/well), which already contain the antiviral compounds. Typically, these plates contain a 5-fold serial dilution of 9 dilution steps of the test compound at 200 times the final concentration in 100% DMSO (200 nL). […] Finally, each plate contains wells which are assigned as virus controls (containing cells and virus in the absence of compound), cell controls (containing cells in the absence of virus and compound) and medium controls (containing medium in the absence of cells, virus and compounds). To the wells assigned as medium control, 25 μL of culture medium was added instead of Vero cells. Once the cells were added to the plates, the plates were incubated for 30 minutes at room temperature to allow the cells to distribute evenly within the wells. Next, the plates were incubated in a fully humidified incubator (37° C., 5% CO2) until the next day. Then, DENV-2 strain 16681, labeled with eGFP, was added at a multiplicity of infection (MOI) of 0.5. Therefore, 15 μL of virus suspension was added to all the wells containing test compound and to the wells assigned as virus control. In parallel, 15 μL of culture medium was added to the medium and cell controls. Next, the plates were incubated for 3 days in a fully humidified incubator (37° C., 5% CO2). At the day of the read out, the eGFP fluorescence was measured using an automated fluorescence microscope at 488 nm (blue laser). Using an in-house LIMS system, inhibition dose response curves for each compound were calculated and the half maximal effective concentration (EC50) was determined. Therefore, the percent inhibition (I) for every test concentration is calculated using the following formula: I=100*(ST-SCC)/(SVC-SCC), ST, SCC and SVC are the amount of eGFP signal in the test compound, cell control and virus control wells, respectively. The EC50 represents the concentration of a compound at which the virus replication is inhibited with 50%, as measured by a 50% reduction of the eGFP fluorescent intensity compared to the virus control. The EC50 is calculated using linear interpolation (Table 1).

A short description of data set [2]: in vitro. The note with it: African green monkey.
Data set [3] has as its system Vero cells. The note with it: African green monkey.
The mark [4] stands for this setting: Dengue virus, DENV2, Vero, 72 h.

pEC50: −log10 of the molar value.

Regarding `COc1cc(NC(C(=O)N2CCc3ccc(C(F)(F)F)cc32)c2ccc(Cl)cc2F)cc(OCCO)c1` (racemic) [Compound 2, 2-(4-chloro-2-fluorophenyl)-2-((3-(2-hydroxyethoxy)-5-methoxyphenyl)amino)-1-(6-(trifluoromethyl)indolin-1-yl)ethanone], the pEC50 in data set [1] (setting [4]) is 8.05. Further, the CC50 in data set [2] was found to be 12000 nM.
On the same counts, the results for `COc1cc(NC(C(=O)N2CCc3ccc(OC(F)(F)F)cc32)c2ccc(Cl)cc2F)cc(OCCO)c1` (racemic) [Compound 6, 2-(4-chloro-2-fluorophenyl)-2-((3-(2-hydroxyethoxy)-5-methoxyphenyl)amino)-1-(6-(trifluoromethoxy)indolin-1-yl)ethanone] are 8.21 and 14000 nM.
As for `COc1cc(NC(C(=O)N2CCc3cc(OC)c(C(F)(F)F)cc32)c2ccc(Cl)cc2)cc(OCCO)c1` (racemic) [Compound 7, 2-(4-chlorophenyl)-2-((3-(2-hydroxyethoxy)-5-methoxyphenyl)amino)-1-(5-methoxy-6-(trifluoromethyl)indolin-1-yl)ethanone], in data set [1] (setting [4]), the negative logarithm of the EC50 (pEC50) is 8.64. Moreover, the CC50 in data set [2] was 11000 nM.
On the same counts, the results for `COc1cc(NC(C(=O)N2CCc3cc(OC)c(C(F)(F)F)cc32)c2ccc(Cl)cc2F)cc(OCCO)c1` (racemic) [Compound 8, 2-(4-chloro-2-fluorophenyl)-2-((3-(2-hydroxyethoxy)-5-methoxyphenyl)amino)-1-(5-methoxy-6-(trifluoromethyl)indolin-1-yl)ethanone] are 8.36 and more than 25000 nM.
As to `COc1cc(NC(C(=O)N2CCc3ccc(C(F)(F)F)cc32)c2ccc(Cl)cc2OC)cc(OCCO)c1` (single isomer, unassigned) [Compound 1A, 2-(4-chloro-2-methoxyphenyl)-2-((3-(2-hydroxyethoxy)-5-methoxyphenyl)amino)-1-(6-(trifluoromethyl)indolin-1-yl)ethanone], in data set [1], the negative logarithm of the EC50 (pEC50) is 6.66. The same compound registered a CC50 in data set [2] of 13000 nM.
On the same counts, the results for `COc1cc(NC(C(=O)N2CCc3ccc(C(F)(F)F)cc32)c2ccc(Cl)cc2F)cc(OCCO)c1` (single isomer, unassigned) [Compound 2A, 2-(4-chloro-2-fluorophenyl)-2-((3-(2-hydroxyethoxy)-5-methoxyphenyl)amino)-1-(6-(trifluoromethyl)indolin-1-yl)ethanone] are 6.49 and 18000 nM.
`COc1cc(NC(C(=O)N2CCc3ccc(OC(F)(F)F)cc32)c2ccc(Cl)cc2)cc(OCCO)c1` (single isomer, unassigned) [Compound 3B, 2-(4-chlorophenyl)-2-((3-(2-hydroxyethoxy)-5-methoxyphenyl)amino)-1-(6-(trifluoromethoxy)indolin-1-yl)ethanone]: the negative logarithm of the EC50 (pEC50) in data set [1] was 6.23. In addition, in data set [3], the CC50 was 12000 nM.
For the compound `COc1cc(NC(C(=O)N2CCc3ccc(OC(F)(F)F)cc32)c2ccc(Cl)cc2OC)cc(OCCO)c1` (single isomer, unassigned) [Compound 5B, 2-(4-chloro-2-methoxyphenyl)-2-((3-(2-hydroxyethoxy)-5-methoxyphenyl)amino)-1-(6-(trifluoromethoxy)indolin-1-yl)ethanone], the negative-log EC50 (pEC50) in data set [1] is 6.12. For the same compound, in data set [3], the CC50 stood at 14000 nM.
As for `COc1cc(NC(C(=O)N2CCc3ccc(OC(F)(F)F)cc32)c2ccc(Cl)cc2F)cc(OCCO)c1` (single isomer, unassigned) [Compound 6A, 2-(4-chloro-2-fluorophenyl)-2-((3-(2-hydroxyethoxy)-5-methoxyphenyl)amino)-1-(6-(trifluoromethoxy)indolin-1-yl)ethanone], the pEC50 in data set [1] is 6.55. In data set [2], this compound yielded a CC50 of 17000 nM.
`COc1cc(NC(C(=O)N2CCc3cc(OC)c(C(F)(F)F)cc32)c2ccc(Cl)cc2)cc(OCCO)c1` (single isomer, unassigned) [Compound 7A, 2-(4-chlorophenyl)-2-((3-(2-hydroxyethoxy)-5-methoxyphenyl)amino)-1-(5-methoxy-6-(trifluoromethyl)indolin-1-yl)ethanone] had a pEC50 in data set [1] of 6.10. In addition, the CC50 in data set [2] was determined as 21000 nM.
Consider `COc1cc(NC(C(=O)N2CCc3cc(OC)c(C(F)(F)F)cc32)c2ccc(Cl)cc2F)cc(OCCO)c1` (single isomer, unassigned) [Compound 8A, 2-(4-chloro-2-fluorophenyl)-2-((3-(2-hydroxyethoxy)-5-methoxyphenyl)amino)-1-(5-methoxy-6-(trifluoromethyl)indolin-1-yl)ethanone], for which the pEC50 in data set [1] was 6.34. This compound also registered a CC50 in data set [3] of more than 25000 nM.
`COc1cc(NC(C(=O)N2CCc3c(C)cc(OC(F)(F)F)cc32)c2ccc(Cl)cc2)cc(OCCO)c1` (single isomer, unassigned) [Compound 9A, 2-(4-chlorophenyl)-2-((3-(2-hydroxyethoxy)-5-methoxy-phenyl)amino)-1-(4-methyl-6-(trifluoromethoxy)indolin-1-yl)ethanone] showed a pEC50 in data set [1] of 6.00. The CC50 in data set [2] is 13000 nM.
The corresponding values for `COc1cc(NC(C(=O)N2CCc3c(C)cc(C(F)(F)F)cc32)c2ccc(Cl)cc2)cc(OCCO)c1` (single isomer, unassigned) [Compound 10A, 2-(4-chlorophenyl)-2-((3-(2-hydroxyethoxy)-5-methoxy-phenyl)amino)-1-(4-methyl-6-(trifluoromethyl)indolin-1-yl)ethanone] are 5.89 and 11000 nM.
On the same counts, the results for `COc1cc(NC(C(=O)N2CCc3cc(OC)c(C(F)(F)F)cc32)c2ccc(Cl)cc2OC)cc(OCCO)c1` (single isomer, unassigned) [Compound 11A, 2-(4-chloro-2-methoxyphenyl)-2-((3-(2-hydroxyethoxy)-5-methoxyphenyl)amino)-1-(5-methoxy-6-(trifluoromethyl)indolin-1-yl)ethanone] are 6.48 and more than 25000 nM.
On to `COc1cc(NC(C(=O)N2CCc3cc(F)c(C(F)(F)F)cc32)c2ccc(Cl)cc2)cc(OCCO)c1` (single isomer, unassigned) [Compound 12B, 2-(4-chlorophenyl)-1-(5-fluoro-6-(trifluoromethyl)indolin-1-yl)-2-((3-(2-hydroxyethoxy)-5-methoxyphenyl)amino)ethanone], for which the pEC50 in data set [1] was 6.40. The same compound yielded a CC50 in data set [3] of 11000 nM.
For the compound `COc1cc(NC(C(=O)N2CCc3cc(OC)c(OC(F)(F)F)cc32)c2ccc(Cl)cc2)cc(OCCO)c1` (single isomer, unassigned) [Compound 13B, 2-(4-chlorophenyl)-2-((3-(2-hydroxyethoxy)-5-methoxyphenyl)amino)-1-(5-methoxy-6-(trifluoromethoxy)indolin-1-yl)ethanone], the negative-log EC50 (pEC50) in data set [1] was 6.55. Also, in data set [3], the CC50 is more than 25000 nM.
